Data taken from US9708336B2, “Metallo-beta-lactamase inhibitors” (priority 2014, dated 2017).
Read-outs that look alike come from different tables or passages of the source.

Key:
NDM-1 = NDM-1 (Klebsiella pneumoniae, UniProt C7C422); experiment: biochemical; assay type: biochemical
IMP-1 = IMP-1 (Serratia marcescens, UniProt P52699); experiment: biochemical; assay type: biochemical; conditions: read-out: IMP-1 IC50
VIM-1 = VIM-1 (Pseudomonas aeruginosa (strain ATCC 15692 / DSM 22644 / CIP 104116 / JCM 14847 / LMG 12228 / 1C / PRS 101 / PAO1), UniProt A0A0F7KYQ8); experiment: Enzyme activity: determination of IC50, fluorescence assay with CCF2-FA substrate (VIM-1); assay type: biochemical
[1] = test system: Escherichia coli expressing NDM-1 (CLB30016); experiment: Antibiotic potentiation activity: synergistic concentration (MITC95) with imipenem, OD600 growth; assay type: cell-based; conditions: for Escherichia coli expressing NDM-1 (CLB 30016) MITC95: concentration giving 95% inhibition of bacterial growth
Method in brief: (§1)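 Steps: colonies grown overnight at 35 °C; resuspended in saline to OD600 0.11–0.15 by strain; diluted 1:100 into 1.1× CAMHB; imipenem then compound added (antibiotic 4 μg/ml in assay); incubated 35 °C for 22–24 h; absorbance measured.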

[2] = test system: Klebsiella pneumoniae expressing VIM-1 (IHMA599644); experiment: as above; assay type: cell-based; conditions: for Klebsiella pneumoniae expressing VIM-1 (IHMA 599644) MITC95: concentration giving 95% inhibition of bacterial growth
Method in brief: as §1

[3] = test system: Serratia marcescens expressing IMP-1 (CL5741); experiment: as above; assay type: cell-based; conditions: for Serratia marcescens expressing IMP-1 (CL5741) MITC95: concentration giving 95% inhibition of bacterial growth
Method in brief: as §1

[4] = NDM-1 enzyme, CCF2-FA substrate, read-out: NDM-1 IC50
[5] = IMP-1 enzyme, CCF2-FA substrate
[6] = VIM-1 enzyme, CCF2-FA substrate, read-out: VIM-1 IC50
[7] = (CLB30016, NDM-1), 95% growth inhibition
[8] = Klebsiella pneumoniae IHMA599644 (VIM-1), 95% growth inhibition
[9] = Serratia marcescens CL5741 (IMP-1), 95% growth inhibition
[10] = fluorescence assay with CCF2-FA substrate, read-out: NDM-1 IC50
[11] = fluorescence assay with CCF2-FA substrate
[12] = CLB30016 (NDM-1), 95% inhibition of bacterial growth
[13] = IHMA599644 (VIM-1), 95% inhibition of bacterial growth
[14] = CL5741 (IMP-1), 95% inhibition of bacterial growth
[15] = fluorescence assay with CCF2-FA substrate, read-out: VIM-1 IC50
[16] = VIM-1 IC50, VIM-1 enzyme, CCF2-FA substrate

Sequence of IMP-1 (P52699 whole entry, looked up): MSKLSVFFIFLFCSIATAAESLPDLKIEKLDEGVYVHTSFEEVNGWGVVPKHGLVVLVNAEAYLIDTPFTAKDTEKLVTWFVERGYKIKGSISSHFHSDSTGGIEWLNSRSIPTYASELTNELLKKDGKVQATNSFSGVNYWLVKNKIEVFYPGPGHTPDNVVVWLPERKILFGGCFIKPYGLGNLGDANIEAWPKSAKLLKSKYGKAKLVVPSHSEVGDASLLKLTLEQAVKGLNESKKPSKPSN
Sequence of NDM-1 (C7C422 whole entry, looked up, species assumed): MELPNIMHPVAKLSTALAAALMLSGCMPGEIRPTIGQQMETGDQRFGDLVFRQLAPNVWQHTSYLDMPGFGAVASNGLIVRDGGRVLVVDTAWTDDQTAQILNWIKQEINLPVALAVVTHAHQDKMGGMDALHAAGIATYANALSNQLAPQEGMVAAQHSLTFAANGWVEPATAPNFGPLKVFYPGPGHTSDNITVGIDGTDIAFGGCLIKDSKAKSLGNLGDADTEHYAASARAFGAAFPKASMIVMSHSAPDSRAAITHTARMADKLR

SMILES	IC50 (NDM-1; [4])	IC50 (IMP-1; [5])	IC50 (VIM-1; [6])	Escherichia coli MITC95 [1, 7]	Klebsiella pneumoniae MITC95 [2, 8]	Serratia marcescens MITC95 [3, 9]	IC50 (NDM-1; [10])	IC50 (IMP-1; [11])	other results
N#Cc1ccc2ncc(-c3cccc(S(N)(=O)=O)c3-c3nnn[nH]3)n2c1 [Example 648, 3-(6-cyanoimidazo[1,2-a]pyridin-3-yl)-2-(1H-tetrazol-5-yl)benzenesulfonamide]	5.11 nM	95.7 nM	15.3 nM	1.563 µM	12.5 µM	6.25 µM			
NS(=O)(=O)c1c(C(F)(F)F)ccc([C@H]2CC[C@H](NC3CCC4(CCNCC4)CC3)CC2)c1-c1nnn[nH]1 [Example 689, 3-[4-(3-azaspiro[5.5]undec-9-ylamino)cyclohexyl]-2-(1H-tetrazol-5-yl)-6-(trifluoromethyl)benzene sulfonamide]	26.8 nM	52.1 nM	6.43 nM	6.25 µM	12.5 µM	6.25 µM			
NS(=O)(=O)c1c(C(F)(F)F)ccc(-c2cnc3ccoc3c2)c1-c1nnn[nH]1 [Example 711, 3-furo[3,2-b]pyridin-6-yl-2-(1H-tetrazol-5-yl)-6-(trifluoromethyl)benzenesulfon-amide]	1.01 nM	3.54 nM	0.224 nM	6.25 µM	6.25 µM	12.5 µM			
NS(=O)(=O)c1c(C(F)(F)F)ccc(-c2ccc(C3CCN(C4CNC4)CC3)cc2)c1-c1nnn[nH]1 [Example 796, 4′-(1-azetidin-3-ylpiperidin-4-yl)-2-(1H-tetrazol-5-yl)-4-(trifluoromethyl)biphenyl-3-sulfonamide]							2.06 nM	0.345 nM	IC50 (VIM-1; VIM-1 IC50, fluorescence assay with CCF2-FA substrate): 18 nM; Escherichia coli MITC95 [1, 12]: 6.25 µM; Klebsiella pneumoniae MITC95 [2, 13]: >200 µM; Serratia marcescens MITC95 [3, 14]: 6.25 µM
CN(C)CCNc1nc2c(-c3cccc(S(N)(=O)=O)c3-c3nn[nH]n3)cccc2s1 [Example 640, 3-[2-[2-(dimethylamino)ethylami-no]-1,3-benzothiazol-4-yl]-2-(2H-tetrazol-5-yl)benzenesulfonamide]	0.855 nM	194 nM	9.84 nM	1.563 µM	100 µM	100 µM			
Nc1nc2c(-c3ccc(C(F)(F)F)c(S(N)(=O)=O)c3-c3nnn[nH]3)cccc2s1 [Example 561, 3-(2-aminobenzo[d]thiazol-4-yl)-2-(1H-tetrazol-5-yl)-6-(trifluoromethyl)benzenesulfonamide]	0.153 nM	0.993 nM	0.434 nM	0.668 µM	2.563 µM	0.09375 µM			
NC1CC(N2CCC(c3ccc(-c4ccc(C(F)(F)F)c(S(N)(=O)=O)c4-c4nnn[nH]4)cc3)CC2)C1 (stereo not drawn) [Example 790, 4′-[1-(3-aminocyclobutyl)piperidin-4-yl]-2-(1H-tetrazol-5-yl)-4-(trifluoromethyl)biphenyl-3-sulfonamide]							3.57 nM	0.871 nM	IC50 (VIM-1; [15]): 7.26 nM; Escherichia coli MITC95 [1, 12]: 0.7813 µM; Klebsiella pneumoniae MITC95 [2, 13]: 12.5 µM; Serratia marcescens MITC95 [3, 14]: 3.125 µM
Cc1nnc2ccc(-c3cccc(S(N)(=O)=O)c3-c3nnn[nH]3)cn12 [Example 113, 3-(3-methyl-[1,2,4]triazolo[4,3-a]pyridin-6-yl)-2-(1H-tetrazol-5-yl)benzenesulfonamide]							15.4 nM	14800 nM	IC50 (VIM-1; [15]): 313 nM; Escherichia coli expressing NDM-1 (CLB 30016) MITC95 [1]: 3.125 µM; Klebsiella pneumoniae expressing VIM-1 (IHMA 599644) MITC95 [2]: 50 µM; Serratia marcescens expressing IMP-1 (CL5741) MITC95 [3]: 200 µM
NS(=O)(=O)c1c(C(F)(F)F)ccc([C@H]2CC[C@@H](C3=NCCN3)CC2)c1-c1nnn[nH]1 [Example 505, 3-(cis 4-(4,5-dihydro-1H-imidazol-2-yl)cyclohexyl)-2-(1H-tetrazol-5-yl)-6-(trifluoromethyl)benzenesulfonamide]		22.2 nM		6.25 µM	12.5 µM	6.25 µM			IC50 (NDM-1): 9.54 nM; IC50 (VIM-1; [16]): 0.937 nM
Cn1cc2cc(-c3cccc(S(N)(=O)=O)c3-c3nnn[nH]3)ccc2n1 [Example 127, 3-(2-methyl-2H-indazol-5-yl)-2-(1H-tetrazol-5-yl)benzenesulfonamide]							1.11 nM	157 nM	IC50 (VIM-1; [15]): 84.2 nM; Escherichia coli expressing NDM-1 (CLB 30016) MITC95 [1]: 1.172 µM; Klebsiella pneumoniae expressing VIM-1 (IHMA 599644) MITC95 [2]: 37.5 µM; Serratia marcescens expressing IMP-1 (CL5741) MITC95 [3]: 4.688 µM
NS(=O)(=O)c1c(C(F)(F)F)ccc(N2CCC(N3CCNCC3)C2)c1-c1nnn[nH]1 (stereo not drawn) [Example 770, 3-(3-piperazin-1-ylpyrrolidin-1-yl)-2-(1H-tetrazol-5-yl)-6-(trifluoromethyl) benzenesulfonamide]							366 nM	251 nM	IC50 (VIM-1; [15]): 7.51 nM; Escherichia coli MITC95 [1, 12]: 50 µM; Klebsiella pneumoniae MITC95 [2, 13]: 3.125 µM; Serratia marcescens MITC95 [3, 14]: 50 µM
NS(=O)(=O)c1c(C(F)(F)F)ccc(-c2cccc3c2OCCN3)c1-c1nnn[nH]1 [Example 724, 3-(3,4-dihydro-2H-1,4-benzoxazin-8-yl)-2-(1H-tetrazol-5-yl)-6-(trifluoromethyl)benzenesulfon-amide]	1.15 nM	2.44 nM	0.862 nM	6.25 µM	12.5 µM	6.25 µM			
NS(=O)(=O)c1c(C(F)(F)F)ccc(-c2cccc(N3CCNCC3)c2)c1-c1nnn[nH]1 [Example 723, 3′-piperazin-1-yl-2-(1H-tetrazol-5-yl)-4-(trifluoromethyl)biphenyl-3-sulfonamide]	7.78 nM	17.2 nM	1.26 nM	6.25 µM	12.5 µM	25 µM			
CC(CO)(CO)c1ccc(-c2ccc(C(F)(F)F)c(S(N)(=O)=O)c2-c2nnn[nH]2)cc1 [Example 725, 4′-[2-hydroxy-1-(hydroxymethyl)-1-methylethyl]-2-(1H-tetrazol-5-yl)-4-(trifluoromethyl)biphenyl-3-sulfonamide]	0.767 nM	0.92 nM	1.27 nM	12.5 µM	25 µM	6.25 µM			
NC[C@H]1CC[C@H](Cc2ccc(-c3ccc(N)nc3)c(-c3nnn[nH]3)c2S(N)(=O)=O)CC1 [Example 579, 6-(((1r,4r)-4-(aminomethyl)cyclohexyl)methyl)-3-(6-aminopyridin-3-yl)-2-(1H-tetrazol-5-yl)benzenesulfonamide]	1.64 nM	17.8 nM		0.7813 µM	12.5 µM	3.125 µM			IC50 (VIM-1; [16]): 3.12 nM
CC(C)(O)C1CN(c2ccc(-c3cccc(S(N)(=O)=O)c3-c3nnn[nH]3)cn2)C1 [Example 624, 3-[6-[3-(1-hydroxy-1-methyl-ethyl)azetidin-1-yl]-3-pyridyl]-2-(1H-tetrazol-5-yl)benzenesulfonamide]	10.2 nM	86.2 nM	559 nM	7.813 µM	>200 µM	12.5 µM			
